From patent publication US11607398B2, “Chlorogenic acid composition and method of weight management” (Vidya Herbs, Inc., priority 2015, dated 2023) come the findings set out here.

Several values for one entry are separate records, joined by “and”; a condition that tells them apart may be missing. Identical values can stand only once.

Data set [1] can be described thus: DPPH radical scavenging assay. The format is biochemical.
Experimental: The free radical scavenging capacity of the test sample was determined using DPPH scavenging assay. DPPH solution was prepared in 95% methanol. Freshly prepared DPPH solution was taken in test tubes and different concentration of test samples were added and incubated for 20 min. The absorbance was read at 517 nm using a spectrophotometer. Blank was prepared containing the same volume of reaction mixture without any tested samples. The percentage of scavenging was calculated using the formula: % Scavenging=Ac−As/Ac×100 Where AC was the absorbance of the control (blank) and AS was the absorbance in the presence of the composition (Braca et al., 2001).
Data set [2] in a line: Superoxide anion scavenging activity (NBT/NADH/PMS). The format is biochemical.
Experimental: Prepared all the solutions in this experiment using phosphate buffer (pH 7.4). Added 1 ml of NBT (156 μM), 1 ml of NADH (468 μM) and 3 ml of test samples to all test tubes. The reaction was started by adding 100 ml of PMS (60 μM) and incubated the mixture at 25° C. for 5 min followed by measurement of absorbance at 560 nm. The percentage of scavenging was calculated using formula: % Scavenging=Ac−As/Ac×100 Where AC was the absorbance of the control (blank) and As was the absorbance in the presence of the composition.
A short description of data set [3]: Reducing power assay (Fe3+ to Fe2+). The format is biochemical. Also noted: Reducing power activity: unit not given here.
For a further data set, the system named is calf thymus DNA. The data set can be described thus: Protective effect on DNA scission induced by hydroxyl radical (TBA assay). The format is biochemical. On the procedure: In this assay hydroxyl radicals are typically generated within a mixture of ascorbic acid, H2O2 and Fe3+-ethylenediaminetetracetic acid (EDTA); those radicals that are not scavenged by other components of the reaction mixture will eventually attack deoxyribose, thus degrading it into a series of fragments.
The experiment was conducted using calf thymus DNA. Briefly, sample was dissolved in ethanol at 1 mg/mL. 50 μl of different concentration of sample was then separately taken into mini tubes followed by addition of 400 μL of phosphate buffer (0.2 mol/L, pH 7.4). Subsequently, 50 μL DNA sodium, 50 μL H2O2, 50 μL FeCl3 and 50 μL Na2EDTA (1 mmol/L) were added. The reaction was initiated by adding 50 μL ascorbic acid (18 mmol/L) and the total volume of the reaction mixture was adjusted to 800 μL with buffer. After incubation in a water bath at 55° C. for 20 min, the reaction was terminated by adding 250 μL TCA.
The color was then developed by addition of 150 μL of TBA and heating in an oven at 105° C. for 15 min. The mixture was cooled and absorbance was measured at 532 nm against the buffer (as blank). The percent of protection against DNA damage is expressed Protective effect %=(1−A/A0)×100 Where A0 is the absorbance of the mixture without sample, and A is the absorbance of the mixture with sample. Results

In data set [4] the test system is Salmonella typhimurium TA 100. The format is cell-based. To be noted: TA 100, +s9, positive control, concentration not given.
In data set [5] the test system is Salmonella typhimurium TA 98. In words: Ames Salmonella mutagenicity test (preincubation method), strain TA 98. The format is cell-based. To be noted: TA 98, +s9, positive control, concentration not given.

As to `O=C1O[C@H]([C@@H](O)CO)C(O)=C1O` [Ascorbic acid], the “% inhibition (DPPH scavenging activity)” value in data set [1] (20 μg/ml) stood at 83.21%; in data set [1] (40 μg/ml), 90.88%; in data set [1] (60 μg/ml), 94.53%; in data set [1] (80 μg/ml) it was 94.89%; in data set [1] (100 μg/ml) it was 96.72%; in data set [1] (100 μg/ml, listed as ascorbic acid) it was 96.71%. Moreover, the “Absorbance @517 nm” value is 0.046 in data set [1] (20 μg/ml); 0.025 in data set [1] (40 μg/ml); 0.015 in data set [1] (60 μg/ml); 0.014 in data set [1] (80 μg/ml); 0.009 in data set [1] (100 μg/ml). The “% inhibition (superoxide scavenging activity)” value in data set [2] (20 μg/ml) was 84.80%; in data set [2] (40 μg/ml) it was 85.20%; in data set [2] (60 μg/ml), 88.40%; in data set [2] (80 μg/ml) it was 89.20%; in data set [2] (100 μg/ml) it was 89.60%. For the same compound, the “Absorbance @560 nm” value amounted to 0.038 in data set [2] (20 μg/ml); 0.037 in data set [2] (40 μg/ml); 0.029 in data set [2] (60 μg/ml); 0.027 in data set [2] (80 μg/ml); 0.026 in data set [2] (100 μg/ml). Moreover, the “Absorbance (reductive capability, 700 nm)” value in data set [3] (100 μg/ml) is listed as 0.970. Further, the Reducing power activity is reported as 15.46 in data set [3] (20 (Table 7; range 20-100 μg/ml per text)); 16.60 in data set [3] (40 (Table 7)); 16.61 in data set [3] (60 (Table 7)); 17.33 in data set [3] (80 (Table 7)); 18.59 in data set [3] (100 (Table 7)).

As for `COc1ccc(O)c(C(C)(C)C)c1` [BHA], the “% protective effect (DNA damage)” value in the data set on calf thymus DNA (10 μg/ml) is 15.79 ± 0.89%; with calf thymus DNA (20 μg/ml), 19.25 ± 1.09%; with calf thymus DNA (40 μg/ml), 32.50 ± 2.12%; in the data set with calf thymus DNA (60 μg/ml) it was 39.16 ± 0.33%; in the data set with calf thymus DNA (80 μg/ml), 43.04 ± 0.29%; in the data set on calf thymus DNA (100 μg/ml), 51.37% and 51.37 ± 4.06%.

Regarding `Nc1ccc2cc3ccccc3cc2c1` [PC 2AF, 2-aminoanthracene], the “Revertant colonies/plate (Mean n = 2 ± S.D.)” value in data set [4] turned out to be 2737 ± 4.9 Revertant colonies/plate; in data set [5] it was 1560 ± 3.53 Revertant colonies/plate.
